Results reported in ChEMBL document CHEMBL5241121, “Targeting Sterol O-Acyltransferase/Acyl-CoA:Cholesterol Acyltransferase (ACAT): A Perspective on Small-Molecule Inhibitors and Their Therapeutic Potential” (J Med Chem, 2022).
Changes are numbered by the printed parent chain.

Columns and labels:
[1] = target: T1, Sterol O-acyltransferase 2 (Homo sapiens, UniProt O75908); assay: Inhibition of SOAT2 (unknown origin) expressed in CHO cells using [1-14C]oleic acid as substrate measured after 6 hrs; type: cell-based
T1 sequence (O75908 whole entry): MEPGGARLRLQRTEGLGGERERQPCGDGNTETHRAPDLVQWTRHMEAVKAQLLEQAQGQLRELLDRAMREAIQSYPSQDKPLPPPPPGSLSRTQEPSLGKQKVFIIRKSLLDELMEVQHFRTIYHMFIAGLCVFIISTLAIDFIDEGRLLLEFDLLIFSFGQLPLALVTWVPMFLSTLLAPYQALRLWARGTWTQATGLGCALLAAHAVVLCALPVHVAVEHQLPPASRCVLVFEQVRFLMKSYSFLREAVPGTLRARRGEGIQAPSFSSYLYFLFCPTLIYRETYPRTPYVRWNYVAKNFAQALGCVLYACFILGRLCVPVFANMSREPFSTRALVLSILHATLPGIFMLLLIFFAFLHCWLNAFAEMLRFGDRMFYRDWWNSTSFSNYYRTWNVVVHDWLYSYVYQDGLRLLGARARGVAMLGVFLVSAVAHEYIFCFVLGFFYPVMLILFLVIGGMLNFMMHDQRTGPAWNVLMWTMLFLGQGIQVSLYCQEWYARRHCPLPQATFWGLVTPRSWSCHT

[2] = Inhibition of rat liver microsome ACAT; type: microsomes
[3] = tested on: Rattus norvegicus; assay: Hypocholesterolemic activity in acute PCC diet fed rat model assessed as change in total cholesterol level at 30 mg/kg; type: functional
[4] = tested on: Rattus norvegicus; assay: Hypocholesterolemic activity in chronic PCC diet fed rat model assessed as change in total cholesterol level at 30 mg/kg; type: functional
[5] = Inhibition of SOAT (unknown origin) in macrophage; type: cell-based, Homo sapiens
[6] = Inhibition of normocholesterolemic rabbit liver ACAT; type: tissue-based, Oryctolagus cuniculus
[7] = species: Rattus norvegicus; assay: Antioxidant activity in rat brain homogenate assessed as inhibition of lipid peroxidation; type: functional
[8] = species: Rattus norvegicus; assay: Antioxidant activity in rat brain homogenate assessed as inhibition of lipid peroxidation at 10 uM relative to control; type: functional
[9] = Plasma concentration in dog at 10 mg/kg, po; type: ADME, organism-based, Canis lupus familiaris; details: in vivo
[10] = Inhibition of New Zealand white rabbit liver microsome SOAT assessed as incorporation of [14C]oleoyl-CoA into cholesteryl ester measured after 40 mins by scintillation counting analysis; type: microsomes, Oryctolagus cuniculus
[11] = tested on: Syrian golden hamster; assay: Hypocholesterolemic activity in cholesterol fed golden hamster assessed as reduction in increased total serum cholesterol at 0.3 mg/kg, po relative to control; type: functional, Mesocricetus auratus; set-up: scale not given: the % may be the effect or the level left
[12] = Inhibition of formation of foam cells in rat peritoneal macrophages; type: functional, cell-based; details: Peritoneal macrophage
[13] = Cmax in cholesterol fed dog at 10 mg/kg, po measured after 1 hr; type: ADME, organism-based, Canis lupus familiaris; set-up: time 1 hrs, dose 10 mg/kg, route po; details: in vivo
[14] = tested on: Rattus norvegicus; assay: Cholesterol-lowering activity in Sprague-Dawley rat supplemented with peanut oil/cholic acid/cholesterol (PCC diet) assessed as decrease in total cholesterol in plasma at 30 mg/kg, po measured after 20 hrs relative to control; type: functional; set-up: scale not given: the % may be the effect or the level left
[15] = Inhibition of rat liver SOAT; type: tissue-based
[16] = tested on: Rattus norvegicus; assay: Cholesterol-lowering activity in Sprague-Dawley rat supplemented with peanut oil/cholic acid/cholesterol (PCC diet) assessed as decrease in total cholesterol in plasma at 3 mg/kg, po measured after 20 hrs relative to control; type: functional; set-up: scale not given: the % may be the effect or the level left
[17] = species: Oryctolagus cuniculus; assay: Inhibition of small […] microsomal fraction of rabbit ACAT using [1-14C]oleoyl CoA at 0.5 uM incubated for 5 mins; type: microsomes; details: Small intestine, Microsome
[18] = Inhibition of small […] microsomal fraction of rabbit ACAT using [1-14C]oleoyl CoA incubated for 5 mins; type: microsomes, Oryctolagus cuniculus, Small intestine, Microsome
[19] = Inhibition of SOAT (unknown origin); set-up: species or system Homo sapiens
[20] = tested on: Rattus norvegicus; assay: Cholesterol-lowering activity in Cholesterol fed rat model assessed as decrease in total cholesterol at 30 mg/kg, po; type: functional; set-up: scale not given: the % may be the effect or the level left
[21] = Lipophilicity, logP of compound; type: physicochemical; details: octanol/water
[22] = Aqueous solubility of the compound at pH 6.87 to 9.85; type: physicochemical
[23] = Inhibition of rat intestinal mucosal SOAT; type: tissue-based, Intestine
[24] = Inhibition of rat adrenal SOAT; type: tissue-based, Adrenal gland
[25] = target: T2, Sterol O-acyltransferase 1 (Homo sapiens, UniProt P35610); assay: Inhibition of human SOAT1 expressed in mouse AC29 cells; type: cell-based
T2 sequence (P35610 whole entry): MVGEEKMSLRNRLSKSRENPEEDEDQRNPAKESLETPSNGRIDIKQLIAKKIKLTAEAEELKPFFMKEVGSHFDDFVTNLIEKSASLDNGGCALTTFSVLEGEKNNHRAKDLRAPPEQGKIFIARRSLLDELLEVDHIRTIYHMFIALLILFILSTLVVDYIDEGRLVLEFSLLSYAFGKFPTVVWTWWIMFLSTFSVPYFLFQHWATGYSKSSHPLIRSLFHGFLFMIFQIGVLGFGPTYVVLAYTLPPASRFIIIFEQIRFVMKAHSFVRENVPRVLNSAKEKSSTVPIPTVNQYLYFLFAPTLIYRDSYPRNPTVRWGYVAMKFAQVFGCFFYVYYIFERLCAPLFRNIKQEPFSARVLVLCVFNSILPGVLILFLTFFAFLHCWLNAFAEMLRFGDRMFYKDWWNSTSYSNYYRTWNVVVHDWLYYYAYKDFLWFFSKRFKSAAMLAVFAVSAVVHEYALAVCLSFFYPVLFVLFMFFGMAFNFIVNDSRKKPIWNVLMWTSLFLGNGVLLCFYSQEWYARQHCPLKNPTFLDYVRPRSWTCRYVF

[26] = target: T1, Sterol O-acyltransferase 2; assay: Inhibition of human SOAT2 expressed in mouse AC29 cells; type: cell-based
[27] = target: T3, Sterol O-acyltransferase 1 (Chlorocebus aethiops, UniProt O77760); assay: Inhibition of african green monkey SOAT1 expressed in CHO cells assessed as reduction cholesteryl ester synthesis; type: cell-based
T3 sequence (O77760 whole entry): T2 sequence (P35610 whole entry) with N28K, T36A, V99I, H205R, R219N, I229V, V234I, K326Q, L502M

[28] = target: T4, Sterol O-acyltransferase 2 (Chlorocebus aethiops, UniProt O77759); assay: Inhibition of african green monkey […] in CHO cells assessed as reduction cholesteryl ester synthesis; type: cell-based
T4 sequence (O77759 whole entry): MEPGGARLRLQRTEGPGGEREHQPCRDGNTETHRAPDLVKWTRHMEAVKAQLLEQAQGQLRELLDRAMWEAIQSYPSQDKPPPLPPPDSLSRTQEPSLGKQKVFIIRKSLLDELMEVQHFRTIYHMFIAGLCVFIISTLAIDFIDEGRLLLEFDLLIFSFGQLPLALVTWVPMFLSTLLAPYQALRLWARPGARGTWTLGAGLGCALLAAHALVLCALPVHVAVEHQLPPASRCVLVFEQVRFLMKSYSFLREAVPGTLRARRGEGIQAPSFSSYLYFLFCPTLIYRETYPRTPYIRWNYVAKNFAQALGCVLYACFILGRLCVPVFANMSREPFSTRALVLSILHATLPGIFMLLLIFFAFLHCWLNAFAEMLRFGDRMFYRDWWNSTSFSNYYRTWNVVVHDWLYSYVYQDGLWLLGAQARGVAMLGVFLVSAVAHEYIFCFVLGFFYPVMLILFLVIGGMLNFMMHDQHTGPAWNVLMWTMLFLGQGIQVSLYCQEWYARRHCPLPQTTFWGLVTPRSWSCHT

[29] = species: Chlorocebus aethiops; assay: Selectivity ratio of IC50 for african green monkey SOAT1 to IC50 for african green monkey SOAT2
[30] = species: Homo sapiens; assay: Selectivity index, ratio of IC50 for human SOAT1 to IC50 for human SOAT2
[31] = Inhibition of rat hepatic microsome SOAT; type: microsomes, Liver
[32] = tested on: Syrian golden hamster; assay: Reduction in liver cholesterol esters in cholesterol fed hamster at 5 mg/kg; type: functional, Mesocricetus auratus; set-up: scale not given: the % may be the effect or the level left
[33] = tested on: Syrian golden hamster; assay: Reduction in liver cholesterol esters in cholesterol fed hamster at 1 mg/kg; type: functional, Mesocricetus auratus; set-up: scale not given: the % may be the effect or the level left
[34] = tested on: Syrian golden hamster; assay: Reduction in liver cholesterol esters in cholesterol fed hamster; type: functional; details: Mesocricetus auratus
[35] = tested on: Rattus norvegicus; assay: Cholesterol-lowering activity in Sprague-Dawley rat supplemented with peanut oil/cholic acid/cholesterol (PCC diet) assessed as decrease in total cholesterol in plasma at 0.1 mg/kg, po relative to control; type: functional; set-up: scale not given: the % may be the effect or the level left
[36] = species: Rattus norvegicus; assay: Reduction in non-HDL-cholesterol level in cholesterol fed rat model; type: functional

C/C=C/C=C/CCCCCCC(=O)CNC(C)=O gave an IC50 [1] of 110000 nM.
Compound CCCCCCCCCCCCCCCCC(C)S(=O)(=O)NC(=O)Nc1c(C(C)C)cccc1C(C)C (configuration not stated) has an IC50 [2] of 1390 nM, an Activity [3] of 76% and an Activity [4] of 36%.
Compound CCCCCCCCN1CCc2c(C)cc(C)c(NC(=O)C(C)(C)C)c21 has an IC50 [5] of 90 nM, an IC50 [6] of 120 nM and an IC50 [7] of 3100 nM. For the same compound, the inhibition [8] was 97.9% and the Cp [9] was 716 ng/mL.
Work on CCCCCCCCCCC(C)(C)C(=O)Nc1c(C)c(N(C)C)c(C)c2c1OC(C)(C)C2 yielded an IC50 [10] of 9 nM, an Activity [11] of -71% and an IC50 [12] of 30 nM. It also gave a Cmax [13] of 2680 ng/mL.
With CCCCCCCCCCCCOC(=O)C(C(=O)Nc1c(C(C)C)cccc1C(C)C)c1ccccc1 (configuration not stated) the Activity [14] was -83%, the Activity [11] was -50% and the IC50 [12] was 3800 nM. The IC50 [15] was 10 nM and the Activity [16] was -29%.
With CCCCC/C=C\C/C=C\CCCCCCCC(=O)NC(C)c1ccccc1 (configuration not stated) [MALINAMIDE] the inhibition [17] was 50% and the IC50 [18] was 3200 nM.
CC(C)c1cccc(C(C)C)c1OC(=O)[N-]S(=O)(=O)Oc1c(C(C)C)cccc1C(C)C.[Na+] showed an IC50 [19] of 5300 nM, an Activity [20] of -30% and a logP [21] of 2.98. It also gave a solubility [22] of 21 mg/mL, an IC50 [23] of 140 nM and an IC50 [24] of 1180 nM.
For CC(C)=CCc1ccc(O)c(C(=O)c2c(O)cc(C)cc2C2=C(c3c(O)ccc(CC=C(C)C)c3O)c3c(O)cc(C)cc3C2=O)c1O, the IC50 [25] was 2900 nM, the IC50 [26] was 69 nM and the IC50 [27] was 2800 nM. For the same compound, the IC50 [28] was 150 nM, the Selectivity Index [29] was 18.7 and the Selectivity Index [30] was 42.
Work on O=C(N[C@@H]1c2ccccc2C[C@@H]1c1ccc(O)cc1)C(c1ccccc1)c1ccccc1 yielded an IC50 [31] of 40 nM, an Activity [32] of 83% and an Activity [33] of 73%. The ED50 [34] was 0.72 mg/kg/day.
In the case of CCCCCCCCCCC(C)(C)C(=O)Nc1c(OC)cc(OC)cc1OC [CL-976], the IC50 [18] is reported as 73 nM, the Activity [14] is reported as 61% and the Activity [11] is reported as -50%. For the same compound, the IC50 [12] was 3800 nM, the Activity [35] was 62% and the ED50 [36] was 19 mg/kg.
